Assay results: US7906516B2, “Carbonyl compounds” (Merck Patent GmbH, priority 2003, dated 2011)

Biological target: FXa (Homo sapiens, UniProt P00742)
Assay: Factor Xa inhibition (FXa-IC50)
Type: biochemical

FXa, sequence (P00742 235-488 limits assumed): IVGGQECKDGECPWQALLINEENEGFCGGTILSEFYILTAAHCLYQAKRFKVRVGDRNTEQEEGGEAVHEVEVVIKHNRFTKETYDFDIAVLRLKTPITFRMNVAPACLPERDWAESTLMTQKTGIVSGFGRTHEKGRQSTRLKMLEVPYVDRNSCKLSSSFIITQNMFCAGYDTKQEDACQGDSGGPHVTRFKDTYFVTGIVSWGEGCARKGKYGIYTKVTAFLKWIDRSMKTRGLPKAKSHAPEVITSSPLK
FXa, sequence (P00742 41-179 partner limits assumed): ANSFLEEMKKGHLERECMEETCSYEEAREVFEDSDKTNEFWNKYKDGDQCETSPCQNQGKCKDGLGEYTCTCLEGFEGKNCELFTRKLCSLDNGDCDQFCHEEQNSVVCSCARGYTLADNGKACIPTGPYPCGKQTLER

SMILES | IC50 [nM]
O=C(Nc1ccc(N2CCOCC2=O)cc1)[C@H]1COCN1C(=O)Nc1ccc(Cl)cc1 [Compound A2, 3-N-[(4-chlorophenyl)]-4-N-{[4-(3-oxomorpholin-4-yl)phenyl]}-(R)-oxazolidine-3,4-dicarboxamide] | 27

Biological target: TF/FVIIa (Homo sapiens, UniProt P08709)
Assay: TF/factor VIIa inhibition (TF/FVIIa-IC50)
Type: biochemical

TF/FVIIa, sequence (P08709 213-466 limits assumed): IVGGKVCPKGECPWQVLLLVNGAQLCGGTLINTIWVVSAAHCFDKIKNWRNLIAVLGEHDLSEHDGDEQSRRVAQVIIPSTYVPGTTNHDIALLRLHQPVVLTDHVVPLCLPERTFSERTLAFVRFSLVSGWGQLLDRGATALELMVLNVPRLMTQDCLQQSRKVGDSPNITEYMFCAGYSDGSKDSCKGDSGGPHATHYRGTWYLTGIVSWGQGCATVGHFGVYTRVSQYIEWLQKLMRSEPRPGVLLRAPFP
TF/FVIIa, sequence (P08709 61-212 partner limits assumed): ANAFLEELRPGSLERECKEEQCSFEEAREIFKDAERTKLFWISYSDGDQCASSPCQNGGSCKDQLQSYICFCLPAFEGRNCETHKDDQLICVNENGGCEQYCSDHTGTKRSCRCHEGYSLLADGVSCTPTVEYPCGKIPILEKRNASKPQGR
TF/FVIIa, sequence (P13726 33-295 partner): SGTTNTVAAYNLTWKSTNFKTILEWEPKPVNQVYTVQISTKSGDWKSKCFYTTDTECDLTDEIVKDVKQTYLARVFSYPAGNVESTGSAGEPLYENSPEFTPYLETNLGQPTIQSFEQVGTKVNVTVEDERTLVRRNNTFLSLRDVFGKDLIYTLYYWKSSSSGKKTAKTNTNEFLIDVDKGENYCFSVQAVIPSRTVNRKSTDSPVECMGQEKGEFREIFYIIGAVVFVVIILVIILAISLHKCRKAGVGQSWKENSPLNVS

SMILES | IC50 [nM]
O=C(Nc1ccc(N2CCOCC2=O)cc1)[C@H]1CCCN1C(=O)c1ccc(Cl)s1 [AB1, N-[4-(3-oxomorpholin-4-yl)phenyl]-(R)-1-(5-chlorothiophene-2-carbonyl)-pyrrolidine-2-carboxamide] | 3900
O=C(Nc1ccc(N2CCOCC2=O)cc1)[C@H]1CCCN1C(=O)Nc1ccc(Cl)cc1 [Compound A1, 1-N-[(4-chlorophenyl)]-2-N-{[4-(3-oxomorpholin-4-yl)phenyl]}-(R)-pyrrolidine-1,2-dicarboxamide] | 23

System: not given
Assay: not given

SMILES | melting point [°C]
CO[C@@H]1C[C@H](C(=O)Nc2ccc(N3CCOCC3=O)cc2)N(C(=O)Nc2ccc(Cl)cc2)C1 | 133
CC(C)C(=O)O[C@@H]1C[C@H](C(=O)Nc2ccc(N3CCOCC3=O)cc2)N(C(=O)Nc2ccc(Cl)cc2)C1 | 129
O=C1C[C@H](C(=O)Nc2ccc(N3CCOCC3=O)cc2)N(C(=O)Nc2ccc(Cl)cc2)C1 | 154
O=C(Nc1ccc(N2CCOCC2=O)cc1)[C@H]1C[C@@H](O)CN1C(=O)/C=C/c1ccc(Cl)s1 | 151
O=C(Nc1ccc(N2CCOCC2=O)cc1)[C@H]1C[C@@H](O)CN1C(=O)Cc1ccc(Cl)cc1 | 141
CCO[C@@H]1C[C@H](C(=O)Nc2ccc(N3CCOCC3=O)c(C)c2)N(C(=O)Nc2ccc(Cl)cc2)C1 | 117
O=C(NC1CCC(N2CCOCC2=O)CC1)[C@H]1C[C@@H](O)CN1C(=O)Nc1ccc(Cl)cc1 (stereo partly shown) | 245
O=C(Nc1ccc(N2CCOCC2=O)cc1)[C@H]1C=CCN1C(=O)Nc1ccc(Cl)cc1 | 245
O=C(Nc1ccc(N2CCOCC2=O)cc1)[C@H]1CCCN1C(=O)c1ccc(Cl)s1 [AB1, N-[4-(3-oxomorpholin-4-yl)phenyl]-(R)-1-(5-chlorothiophene-2-carbonyl)-pyrrolidine-2-carboxamide] | 195
O=C(Nc1ccc(N2CCOCC2=O)cc1)[C@H]1CCCN1C(=O)Nc1ccc(Cl)cc1 [Compound A1, 1-N-[(4-chlorophenyl)]-2-N-{[4-(3-oxomorpholin-4-yl)phenyl]}-(R)-pyrrolidine-1,2-dicarboxamide] | 227.6
